Results: patent US20050154034A1, “Methods of using zonisamide as an adjunctive therapy for partial seizures” (Eisai Co., Ltd., priority 2004, published 2005)

Columns and labels:
rat hippocampal slices = details: 10-30 μg/mL; cited from earlier work
[1] = Pharmacovigilance review of rhabdomyolysis/CPK elevation in zonisamide-treated patients; format: in vivo, human patients (U.S. and Japan)
Excerpt: The pharmacovigilance data that were collected, reviewed and analyzed provided the following information in respect of the incidence of rhabdomyolysis/CPK elevation in the zonisamide-treated patient population. To date, a total of 10 cases fulfill the criteria of potential rhabdomyolysis cases. These 10 cases were reviewed in detail for evaluation of possible safety signals. All 10 cases fulfill serious criteria. Of these 10 cases, seven (7) cases were reported as rhabdomyolysis and three (3) cases were reported as CPK increase.
Of the seven (7) rhabdomyolysis cases, six (6) are verbatim cases from Dainippon and one (1) originates in the U.S. Of the seven (7) cases, three (3) were pediatric cases and four (4) were adult cases.
Of the seven (7) rhabdomyolysis cases, two (2) cases have strong confounding factors, but the possibility of zonisamide involvement cannot be completely excluded. Two (2) cases have moderate confounding factors, and zonisamide involvement may be possible.
Of the three (3) cases of CPK increase, one (1) is a verbatim report from Dainippon, and two (2) originated from the U.S. Of the three (3) cases, two are pediatric patients and one is an adult. Of these three (3) cases, two (2) recovered and the outcome of the third is unknown.
Of the three (3) cases of CPK increase, one (1) case has strong confounding factors, but the possibility of zonisamide involvement cannot be completely excluded. One (1) case has weak confounding factors, and zonisamide involvement may be possible.
Estimates of zonisamide exposure, based upon retail and mail order prescriptions, indicate that the number of unique patients taking zonisamide capsules in the U.S. is about 37,276 (total prescriptions per year/average number of prescriptions per patient per year less a calculated percentage decrease based on estimated annual dropouts) in the time between approval in 2000 and December 2002 . Hospital patient data for that period, however, is not available and is not reflected in the estimates. Estimates of patient exposure for Japan indicate that the number of unique patients taking zonisamide is about 1,185,177 for time beginning with the approval in Japan through December 2002. Japanese data includes prescription and hospital patient data. Exposure from clinical trials are not included in the U.S. or Japanese exposure estimates. Based on these statistics, the estimated number of patients exposed to zonisamide in the U.S. and Japan is 1,222,453 unique patients. This is a rather conservative estimate, assuring that the number of patients actually exposed to zonisamide is unlikely to be higher than the estimate provided. Similarly, the incidences of rhabdomyolysis estimated herein are unlikely to be higher than calculated. […] For the one (1) case reported in Japan, this amounts to an estimated incidence of 1:1,185,177 based upon estimated Japanese exposure. For the one (1) case reported in the US, this represents an estimated incidence of 1:37,276 based upon estimated US exposure. These two (2) cases of CPK increase represent a combined estimated incidence of 1:611,227 based upon the combined estimates of Japanese and US exposure. Thus, the overall estimated incidences of elevated CPK are 1:395,059 for Japanese cases, 1:18,638 for US cases and 1:244,491 for both Japanese and US cases, based on combining the reported cases of rhabdomyolysis and elevated CPK (the standard surrogate marker of muscle breakdown and typically seen in rhabdomyolysis).
Combining all the above cases of rhabdomyolysis and CPK increase, the estimated incidences of any patient who has experienced an elevated CPK (marker of muscle breakdown) are 1:400,000 for Japanese cases and 1:18,000 for US cases.

[2] = cited from earlier work
[3] = system: GABA/benzodiazepine receptor ionophore complex; details: in vitro; cited from earlier work
[4] = system: cultured mouse spinal cord neurons; details: 10-30 μg/mL, cited from earlier work
sodium channels = details: in vitro; cited from earlier work
carbonic anhydrase = details: fraction of the inhibition of acetazolamide; cited from earlier work
T-type Ca2+ currents = details: in vitro; cited from earlier work
[5] = system: dopaminergic and serotonergic neurotransmission; details: in vivo microdialysis; cited from earlier work

NS(=O)(=O)Cc1noc2ccccc12 [zonisamide, 1,2-benzisoxazole-3-methanesulfonamide]
neuronal or glial uptake of [3H]-GABA (rat hippocampal slices): without affecting | CPK increase cases recovered ([1]; human, in vivo): 2 cases | cases fulfilling the criteria of potential rhabdomyolysis cases ([1]; human, in vivo): 10 cases | cases of CPK increase with no or only weak confounding factors present ([1]; human, in vivo): 2 cases | cases of rhabdomyolysis with no or only weak confounding factors present ([1]; human, in vivo): 3 cases | cases reported as CPK increase ([1]; human, in vivo): 3 cases | cases reported as rhabdomyolysis ([1]; human, in vivo): 7 cases | combined estimated incidence of CPK increase ([1]; human, in vivo): 1:611,227 | rhabdomyolysis cases not recovered ([1]; human, in vivo): 2 cases | rhabdomyolysis cases recovered ([1]; human, in vivo): 2 cases | rhabdomyolysis cases recovering at time of report ([1]; human, in vivo): 1 cases | time to development of CPK increase after initiation of zonisamide treatment ([1]; human, in vivo): two (2) days and six (6) weeks | time to development of rhabdomyolysis after initiation of zonisamide treatment ([1]; human, in vivo): two (2) weeks and nine (9) years | rhabdomyolysis cases with fatal outcome ([1]; of 7 rhabdomyolysis cases): 2 cases | frequency of side effects by dose ([2]; doses of 300 mg per day and above): more frequent | half-life ([2]; human, in vivo): long half-life | hepatic enzyme induction ([2]; human, in vivo): not known to be a hepatic enzyme inducer | time required to achieve steady state levels ([2]; upon reaching a stable dose or following dosage adjustment): up to two weeks | binding to GABA/benzodiazepine receptor ionophore complex [3]: binds to the GABA/benzodiazepine receptor ionophore complex in an allosteric fashion | changes in chloride flux [3]: does not produce changes in chloride flux | postsynaptic GABA or glutamate responses ([4]; cultured mouse spinal cord neurons): without affecting | synaptically-driven electrical activity [4]: suppresses | effect on sodium channels (sodium channels): blocks sodium channels | carbonic anhydrase inhibition compared to acetazolamide (carbonic anhydrase): 1/50 | effect on voltage-dependent, transient inward currents (T-type Ca2+ currents) (T-type Ca2+ currents): reduces | dopaminergic and serotonergic neurotransmission [5]: facilitates
